Data as given in patent US5039691A, “5-(1-(imidazol)methyl)-3,3-disubstituted-2(3H)furanone derivatives” (Marion Merrell Dow Inc., priority 1990, dated 1991).
Structures can show the parent of a compound that is named as a salt.

Key:
Set-up in all cases: species or system guinea pig
[1] = target: T1, muscarinic cholinergic receptors on intestinal (ileal-longitudinal) smooth muscle (Cavia porcellus, UniProt H0W1Z3); assay: Antimuscarinic test: antagonism of carbachol contraction of isolated ileum (Muscarinic Antagonist Activity, Ileum); details: carbachol agonist, 37° C.
T1 construct: The longitudinal muscle, with the myenteric plexus attached, is separated from the underlying circular muscle; from tissue; host or cells: guinea pig ileum, longitudinal smooth muscle with myenteric plexus

[2] = target: T2, muscarinic cholinergic receptors on bladder detrusor muscle (Cavia porcellus, UniProt H0W1Z3); assay: Antimuscarinic test: antagonism of carbachol contraction of isolated bladder (Muscarinic Antagonist Activity, Bladder); details: bladder detrusor strips, carbachol agonist, 35° C.
T2 construct: The peritoneal cavity is opened and the bladder is held lightly at its apex; from tissue; host or cells: guinea pig urinary bladder, detrusor strips without mucosa
Procedure: ANTIMUSCARINIC TEST PROTOCOL
PREPARATION OF BLADDER FOR TESTING
Male albino guinea pigs are killed by decapitation or cervical dislocation. The peritoneal cavity is opened and the bladder is held lightly at its apex, stretched gently, and fat is lifted with fine forceps and dissected away in situ with blunt-tipped scissors as close to the surface of the bladder as possible. The tissue is placed in a latex-bottomed Petri dish that contains a modified Krebs solution (133 mM NaCl, 1.3 mM […], 16.3 mM NaHCO3, 4.7 mM KCl, 0.6 mM MgSO4.7H2 O, 2.5 mM CaCl2.2H2 O, 7.7 mM dextrose) and cut above the neck. The bladder is collapsed into a flat pouch, which is opened by two lateral incisions and unfolded to give a rectangular sheet of tissue approximately 2 cm long and 1 cm wide. The sheet is gently stretched and pinned to the bottom of the Petri dish. Blunt separation of the mucosa, which is visible as a looser superficial pink layer, is started at one end by carefully inserting the blades of micro dissecting scissors between the mucosa and muscle layers and using gentle spreading of the blades, together with steady traction with forceps to tease the two layers apart. Clean removal of the mucosa is usually possible without any fraying or tearing of the underlying muscle. The removal of the mucosa is considered essential for improving oxygen supply to the preparation and for providing better access on both sides of the thin muscle sheet for administered drugs (Ambache and Zar, J. Physiol. 210:671, 1970). The sheet is trimmed, if necessary, and cut longitudinally into four strips.
The strips are tied off with 5-0 silk suture and are then suspended in 10 mL water-jacketed glass tissue baths containing the Krebs solution maintained at 35° C. and aerated with 95% O2 /5% CO2. The suture connects each tissue to an isometric force-displacement transducer (Grass or Gould) coupled to a physiograph. Each preparation is suspended under a resting tension of 0.5 g and allowed to equilibrate for 36 minutes. During this period, the baths are emptied and filled every 12 minutes with 10 mL of warm Krebs buffer. At the end of this period, each muscle strip is conditioned by adding 10 μM carbachol to the baths. The drug remains in contact with each tissue for 1-2 minutes and then is removed by four rapid rinses of 10 mL of warm Krebs buffer. The preparations are allowed to recover for an additional 12 minutes before being used in experiments.
Carbachol is dissolved in saline to produce 2×10^-2 M stock concentrations. Serial dilutions (1:10) in saline or water are made from the stock solution. Appropriate volumes of these solutions are added cumulatively to the 10 mL tissue baths in order to obtain the desired bath concentrations.
PREPARATION OF TEST COMPOUNDS
Compounds that are soluble in water or saline are dissolved in these solvents to produce 2×10^-2 or 2×10^-3 M stock concentrations. Small amounts of IN HCl, NaOH, or 95% ethanol may be added for those agents that are not soluble in water or saline alone. Serial dilutions (1:10) in saline or water are made from the stock solution. Compounds that are insoluble in aqueous solvents are dissolved in dimethylsulfoxide (DMSO) to produce 4×10^-2 M stock solutions. Serial dilutions (1:10) in water are made from the stock solution. Other solvents may be used when appropriate and will be specifically described in the experimental procedure. Appropriate volumes are then added to the baths in order to obtain the desired bath concentrations.
Appropriate volumes of carbachol solutions are cumulatively added to the 10 mL tissue baths to increase the concentration of carbachol in the bath step-by-step without washing out after each single dose. With each concentration step, the tissue contracts isometrically. The next concentration is added only after the preceding contraction has reached a steady value. […]

[3] = system: Male Guinea pigs; assay: Primary in vivo bronchodilator assay for muscarinic antagonists (reversal of carbachol bronchoconstriction); details: cumulative dose causing 50% reversal of carbachol bronchoconstriction; for ED50: Cavia porcellus, iv; for Bronchodilator Activity ED50: i.v.
Procedure: PRIMARY IN VIVO BRONCHODILATOR ASSAY FOR MUSCARINIC ANTAGONISTS Male Guinea pigs were anesthetized by urethane. The trachea, carotid artery and jugular vein were cannulated. Animals were ventilated with room air at a constant rate and volume. Airway pressure was measured from a side port of the tracheal catheter, and blood pressure and heart rate were monitored as well. After a stable baseline period, an aerosol of carbachol was administered via an ultrasonic nebulizer. Once the bronchoconstrictor response plateaued, test compound was given in increasing i.v. doses to cause graded, cumulative reductions in airway pressure. If more than a 50% reversal of bronchoconstriction occurred, an ED50 value for bronchodilator potency was calculated using a probit analysis. The ED50 was defined as the cumulative i.v. dose that caused a 50% reversal of bronchoconstriction.

T2 sequence (H0W1Z3 1-590): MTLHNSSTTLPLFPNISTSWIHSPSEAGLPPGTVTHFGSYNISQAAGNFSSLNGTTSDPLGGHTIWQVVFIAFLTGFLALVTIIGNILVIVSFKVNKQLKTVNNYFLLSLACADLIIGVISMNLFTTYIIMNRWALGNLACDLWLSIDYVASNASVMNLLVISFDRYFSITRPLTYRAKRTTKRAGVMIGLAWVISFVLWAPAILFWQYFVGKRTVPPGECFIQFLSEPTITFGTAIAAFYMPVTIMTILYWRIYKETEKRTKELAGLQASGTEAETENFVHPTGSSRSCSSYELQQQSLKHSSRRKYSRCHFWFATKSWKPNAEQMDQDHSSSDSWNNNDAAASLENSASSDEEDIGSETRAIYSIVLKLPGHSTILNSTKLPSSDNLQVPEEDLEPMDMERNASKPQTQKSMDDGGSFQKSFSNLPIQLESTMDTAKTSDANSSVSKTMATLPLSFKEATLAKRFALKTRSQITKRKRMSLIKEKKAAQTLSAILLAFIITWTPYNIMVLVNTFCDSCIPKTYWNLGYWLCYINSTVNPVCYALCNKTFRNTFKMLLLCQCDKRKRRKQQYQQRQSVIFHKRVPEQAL
T1 sequence (H0W1Z3 1-590): as above

Compound | Kb [1] [nM] | Kb [2] [nM] | ED50 [3] [mg/kg] | Bronchodilator Activity ED50 [3] [mg/kg]
5-[1-(3-Methylimidazol)methyl]-4,5-dihydro-5-methyl-3,3-diphenyl-2(3H)furanone hydrate | 370 | 317 |  | 
Cc1cccn2cc[n+](CC3CC(c4ccccc4)(c4ccccc4)C(=O)O3)c12 (centres unmarked) [1-[(2,3,4,5-Tetrahydro-5-oxo-4,4-diphenyl-2-furanyl)methyl]-8-methylimidazo[1,2-a]pyridinium chloride hydrate] | 74 |  |  | 
O=C1OC(C[n+]2ccn3ccccc32)CC1(c1ccccc1)c1ccccc1 (centres unmarked) [1-[(2,3,4,5-Tetrahydro-5-oxo-4,4-diphenyl-2-furanyl)methyl]imidazo[1,2-a]pyridinium chloride hydrate] | 45 |  |  | 
Cc1n(CC2CC(c3ccccc3)(c3ccccc3)C(=O)O2)cc[n+]1C (centres unmarked) [5-[1-(2,3-Dimethylimidazol)methyl]-4,5-dihydro-3,3-diphenyl-2(3H)furanone bromide] | 71 |  | 0.85 | 
O=C1OC(Cn2ccnc2Cc2ccccc2)CC1(c1ccccc1)c1ccccc1 (centres unmarked) [5-[1-(2-Benzylimidazol)methyl]-4,5-dihydro-3,3-diphenyl-2(3H)furanone hydrochloride] | 223 |  |  | 
COC(=O)c1nccn1CC1CC(c2ccccc2)(c2ccccc2)C(=O)O1 (centres unmarked) [5-[1-(2-Carbomethoxyimidazol)methyl]-4,5-dihydro-3,3-diphenyl-2(3H)furanone hydrochloride] | 435 |  |  | 
CCOCc1nccn1CC1CC(c2ccccc2)(c2ccccc2)C(=O)O1 (centres unmarked) [5-[1-(2-Ethoxymethylimidazol)methyl]-4,5-dihydro-3,3-diphenyl-2(3H)furanone] | > 1000 |  | > 10 | 
CCc1nc(C)cn1CC1CC(c2ccccc2)(c2ccccc2)C(=O)O1 (centres unmarked) [5-[1-(2-Ethyl-4-methylimidazol-methyl]-4,5-dihydro-3,3-diphenyl-2(3H)furanone hydrobromide] | 86 |  |  | 
CCc1nccn1CC1=CC(c2ccccc2)(c2ccccc2)C(=O)O1 [5-[1-(2-Ethylimidazol)methyl]-3,3-diphenyl-2(3H)furanone] | 8.2 |  | 1.9 | 
CC(C)Cc1nccn1CC1CC(c2ccccc2)(c2ccccc2)C(=O)O1 (centres unmarked) [5-[1-(2-Isobutylimidazol)methyl]-4,5-dihydro-3,3-diphenyl-2(3H)furanone hydrochloride] | 489 |  | > 10 | 
CC(C)c1n(CC2CC(c3ccccc3)(c3ccccc3)C(=O)O2)cc[n+]1C (centres unmarked) [5-[1-(2-Isopropyl-3-methylimidazol)methyl]-4,5-dihydro-3,3-d] [5-[1-(2-Isopropyl-3-methylimidazol)methyl]-4,5-dihydro-3,3-diphenyl-2(3H)furanone iodide] |  |  |  | 0.06
CC(C)c1n(CC2CC(c3ccccc3)(c3ccccc3)C(=O)O2)cc[n+]1C (centres unmarked) [5-[1-(2-Isopropyl-3-methylimidazol)methyl]-4,5-dihydro-3,3-diphenyl-2(3H)furanone iodide] | 4 | 2.4 |  | 
CC(C)c1n(CC2CC(c3ccccc3)(c3ccccc3)C(=O)O2)cc[n+]1C (centres unmarked) [5-[1-(2-Isopropyl-3-methylimidazol-methyl]-4,5-dihydro-3,3-d] [5-[1-(2-Isopropyl-3-methylimidazol-methyl]-4,5-dihydro-3,3-diphenyl-2(3H)furanone bromide] |  |  |  | 0.007

Continued, in another order:

Kb [1] [nM] | Kb [2] [nM] | Compound | ED50 [3] [mg/kg] | Bronchodilator Activity ED50 [3] [mg/kg]
2.9 | 0.7 | CC(C)c1n(CC2CC(c3ccccc3)(c3ccccc3)C(=O)O2)cc[n+]1C (centres unmarked) [5-[1-(2-Isopropyl-3-methylimidazol-methyl]-4,5-dihydro-3,3-diphenyl-2(3H)furanone bromide] |  | 
39 |  | COCCc1n(CC2CC(c3ccccc3)(c3ccccc3)C(=O)O2)cc[n+]1C (centres unmarked) [5-[1-(2-Methoxyethyl-3-methylimidazol)methyl]-4,5-dihydro-3,3-diphenyl-2(3H)furanone iodide hydrate] |  | 
638 |  | COCCc1nccn1CC1CC(c2ccccc2)(c2ccccc2)C(=O)O1 (centres unmarked) [5-[1-(2-Methoxyethylimidazol)methyl]-4,5-dihydro-3,3-diphenyl-2(3H)furanone hydrochloride] | > 10 | 
40 |  | COCc1n(CC2CC(c3ccccc3)(c3ccccc3)C(=O)O2)cc[n+]1C (centres unmarked) [5-[1-(2-Methoxymethyl-3-methylimidazol)methyl]-4,5-dihydro-3,3-diphenyl-2(3H)furanone iodide] |  | 
544 |  | Cc1n(CC2CC(c3ccccc3)(c3ccccc3)C(=O)O2)cc[n+]1Cc1ccccc1 (centres unmarked) [5-[1-(2-Methyl-3-benzylimidazol)methyl]-4,5-dihydro-3,3-diphenyl-2(3H)furanone bromide] |  | 
5920 |  | O=C1OC(Cn2ccnc2-c2ccccc2)CC1(c1ccccc1)c1ccccc1 (centres unmarked) [5-[1-(2-Phenylimidazol)methyl]-4,5-dihydro-3,3-diphenyl-2(3H)furanone] | > 6 | 
113 |  | CCCCc1nccn1CC1CC(c2ccccc2)(c2ccccc2)C(=O)O1 (centres unmarked) [5-[1-(2-n-Butylimidazol)methyl]-4,5-dihydro-3,3-diphenyl-2(3H)furanone] | > 10 | 
3.3 |  | CC(C)(C)c1nccn1CC1CC(c2ccccc2)(c2ccccc2)C(=O)O1 (centres unmarked) [5-[1-(2-tert-Butylimidazol)methyl]-4,5-dihydro-3,3-diphenyl-2(3H)furanone hydrochloride] | 0.14 | 
229 |  | CCn1cc[n+](CC2CC(c3ccccc3)(c3ccccc3)C(=O)O2)c1 (centres unmarked) [5-[1-(Ethylimidazol)methyl]-4,5-dihydro-3,3-diphenyl-2(3H)furanone bromide] |  | 
67 |  | COCc1nccn1CC1CC(c2ccccc2)(c2ccccc2)C(=O)O1 (centres unmarked) [5-[1-[2-(2-Methoxymethyl)imidazol]methyl]-4,5-dihydro-3,3-diphenyl-2(3H)furanone hydrochloride hydrate] | > 10 | 
> 1000 |  | O=C1OC(C[N+]2=C3CCCCCN3CCC2)CC1(c1ccccc1)c1ccccc1 (centres unmarked) [5-[(1,8-Diazabicyclo[5.4.0]undec-7-en-8-yl)methyl]-4,5-dihydro-3,3-diphenyl-2(3H)furanone chloride hydrate] | > 10 | 
1280 |  | O=C1OC(Cn2cnc3ccccc32)CC1(c1ccccc1)c1ccccc1 (centres unmarked) [5-[(1-Benzimidazol)methyl]-4,5-dihydro-3,3-diphenyl-2(3H)furanone] |  | 
373 |  | O=C1OC(Cn2ccnc2)CC1(c1ccccc1)c1ccccc1 (centres unmarked) [5-[(1-Imidazol)methyl]-4,5-dihydro-3,3-diphenyl-2(3H)furanone] |  | 
33 |  | O.O=C1OC(C[n+]2ccn3c2CCC3)CC1(c1ccccc1)c1ccccc1.[Cl-] (centres unmarked) [6,7-Dihydro-1-[(2,3,4,5-tetrahydro-5-oxo-4,4-diphenyl-2-furanyl)methyl]-5H-pyrrolo[1,2-a]imidazolium chloride hydrate] | 0.7 | 
